Data from ChEMBL document CHEMBL5291721, “A preclinical secondary pharmacology resource illuminates target-adverse drug reaction associations of marketed drugs” (Nat Commun, 2023).

Key:
Adenosine receptor A3 = biological target: T1, Adenosine receptor A3 (Homo sapiens, UniProt P0DMS8)
T1 sequence (P0DMS8 whole entry): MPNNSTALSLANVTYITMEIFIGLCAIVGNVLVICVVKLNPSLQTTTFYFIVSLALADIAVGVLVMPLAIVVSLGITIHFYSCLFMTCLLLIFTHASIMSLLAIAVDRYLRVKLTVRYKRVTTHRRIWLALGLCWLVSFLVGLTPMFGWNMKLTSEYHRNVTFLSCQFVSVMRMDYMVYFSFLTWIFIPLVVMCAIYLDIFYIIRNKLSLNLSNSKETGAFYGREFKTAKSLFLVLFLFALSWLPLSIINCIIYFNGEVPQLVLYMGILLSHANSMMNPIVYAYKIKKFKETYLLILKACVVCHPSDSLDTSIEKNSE

Motilin receptor = Motilin receptor (Homo sapiens, UniProt O43193)
Motilin receptor, sequence (O43193 whole entry): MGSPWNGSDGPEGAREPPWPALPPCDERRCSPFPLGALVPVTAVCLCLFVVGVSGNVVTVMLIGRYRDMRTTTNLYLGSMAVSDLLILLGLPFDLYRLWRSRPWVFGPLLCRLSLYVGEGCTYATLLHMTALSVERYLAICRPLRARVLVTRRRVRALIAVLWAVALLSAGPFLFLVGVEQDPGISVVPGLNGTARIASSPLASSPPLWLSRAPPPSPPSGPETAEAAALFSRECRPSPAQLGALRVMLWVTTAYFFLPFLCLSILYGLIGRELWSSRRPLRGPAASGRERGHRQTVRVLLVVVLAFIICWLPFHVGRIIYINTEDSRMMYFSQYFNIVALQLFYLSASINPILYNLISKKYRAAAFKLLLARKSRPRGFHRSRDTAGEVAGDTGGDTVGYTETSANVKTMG

[1] = biological target: T2, Alpha-2A adrenergic receptor (Homo sapiens, UniProt P08913); type: functional, cell-based
T2 sequence (P08913 whole entry): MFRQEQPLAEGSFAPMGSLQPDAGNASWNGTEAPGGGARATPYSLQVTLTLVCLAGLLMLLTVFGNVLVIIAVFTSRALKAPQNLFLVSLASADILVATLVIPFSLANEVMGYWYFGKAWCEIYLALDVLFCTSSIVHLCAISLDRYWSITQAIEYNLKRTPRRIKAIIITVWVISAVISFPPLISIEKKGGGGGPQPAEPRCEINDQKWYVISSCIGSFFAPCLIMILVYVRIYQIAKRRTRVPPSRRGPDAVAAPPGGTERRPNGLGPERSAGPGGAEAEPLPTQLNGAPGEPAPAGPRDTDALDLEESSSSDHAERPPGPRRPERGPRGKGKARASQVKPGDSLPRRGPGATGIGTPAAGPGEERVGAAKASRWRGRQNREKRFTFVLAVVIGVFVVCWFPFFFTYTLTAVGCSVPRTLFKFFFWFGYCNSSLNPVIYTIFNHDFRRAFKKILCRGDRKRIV

Endothelin-1 receptor = biological target: T3, Endothelin-1 receptor (Homo sapiens, UniProt P25101)
T3 sequence (P25101 whole entry): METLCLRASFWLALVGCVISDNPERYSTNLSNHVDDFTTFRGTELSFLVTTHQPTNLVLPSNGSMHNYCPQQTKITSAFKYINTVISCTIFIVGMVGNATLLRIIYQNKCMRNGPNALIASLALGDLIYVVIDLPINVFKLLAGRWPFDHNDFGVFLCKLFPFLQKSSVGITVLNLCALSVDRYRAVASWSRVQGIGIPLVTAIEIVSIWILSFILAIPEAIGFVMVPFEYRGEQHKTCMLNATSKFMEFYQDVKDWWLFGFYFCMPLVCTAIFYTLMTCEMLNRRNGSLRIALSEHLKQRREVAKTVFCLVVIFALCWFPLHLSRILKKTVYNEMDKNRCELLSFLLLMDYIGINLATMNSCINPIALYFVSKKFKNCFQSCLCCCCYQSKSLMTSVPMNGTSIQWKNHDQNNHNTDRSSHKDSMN

[2] = biological target: T4, 5-hydroxytryptamine receptor 3A (Homo sapiens, UniProt P46098); type: functional
T4 sequence (P46098 whole entry): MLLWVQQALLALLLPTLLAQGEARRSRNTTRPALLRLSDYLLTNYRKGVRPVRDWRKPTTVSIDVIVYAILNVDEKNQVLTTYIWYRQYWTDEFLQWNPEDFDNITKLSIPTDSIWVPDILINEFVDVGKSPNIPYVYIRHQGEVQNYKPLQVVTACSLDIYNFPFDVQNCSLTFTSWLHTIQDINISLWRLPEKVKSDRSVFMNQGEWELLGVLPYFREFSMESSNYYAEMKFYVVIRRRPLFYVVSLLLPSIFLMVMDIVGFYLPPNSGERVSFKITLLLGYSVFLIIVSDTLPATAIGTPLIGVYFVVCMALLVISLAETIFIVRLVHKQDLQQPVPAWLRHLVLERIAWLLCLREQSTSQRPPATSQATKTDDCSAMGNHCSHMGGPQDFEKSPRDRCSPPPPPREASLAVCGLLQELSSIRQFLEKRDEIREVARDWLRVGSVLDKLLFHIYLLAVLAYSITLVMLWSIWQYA

[3] = biological target: cGMP-inhibited 3',5'-cyclic phosphodiesterase 3A (Homo sapiens, UniProt Q14432); type: functional
cGMP-inhibited 3',5'-cyclic phosphodiesterase 3A, sequence (Q14432 whole entry): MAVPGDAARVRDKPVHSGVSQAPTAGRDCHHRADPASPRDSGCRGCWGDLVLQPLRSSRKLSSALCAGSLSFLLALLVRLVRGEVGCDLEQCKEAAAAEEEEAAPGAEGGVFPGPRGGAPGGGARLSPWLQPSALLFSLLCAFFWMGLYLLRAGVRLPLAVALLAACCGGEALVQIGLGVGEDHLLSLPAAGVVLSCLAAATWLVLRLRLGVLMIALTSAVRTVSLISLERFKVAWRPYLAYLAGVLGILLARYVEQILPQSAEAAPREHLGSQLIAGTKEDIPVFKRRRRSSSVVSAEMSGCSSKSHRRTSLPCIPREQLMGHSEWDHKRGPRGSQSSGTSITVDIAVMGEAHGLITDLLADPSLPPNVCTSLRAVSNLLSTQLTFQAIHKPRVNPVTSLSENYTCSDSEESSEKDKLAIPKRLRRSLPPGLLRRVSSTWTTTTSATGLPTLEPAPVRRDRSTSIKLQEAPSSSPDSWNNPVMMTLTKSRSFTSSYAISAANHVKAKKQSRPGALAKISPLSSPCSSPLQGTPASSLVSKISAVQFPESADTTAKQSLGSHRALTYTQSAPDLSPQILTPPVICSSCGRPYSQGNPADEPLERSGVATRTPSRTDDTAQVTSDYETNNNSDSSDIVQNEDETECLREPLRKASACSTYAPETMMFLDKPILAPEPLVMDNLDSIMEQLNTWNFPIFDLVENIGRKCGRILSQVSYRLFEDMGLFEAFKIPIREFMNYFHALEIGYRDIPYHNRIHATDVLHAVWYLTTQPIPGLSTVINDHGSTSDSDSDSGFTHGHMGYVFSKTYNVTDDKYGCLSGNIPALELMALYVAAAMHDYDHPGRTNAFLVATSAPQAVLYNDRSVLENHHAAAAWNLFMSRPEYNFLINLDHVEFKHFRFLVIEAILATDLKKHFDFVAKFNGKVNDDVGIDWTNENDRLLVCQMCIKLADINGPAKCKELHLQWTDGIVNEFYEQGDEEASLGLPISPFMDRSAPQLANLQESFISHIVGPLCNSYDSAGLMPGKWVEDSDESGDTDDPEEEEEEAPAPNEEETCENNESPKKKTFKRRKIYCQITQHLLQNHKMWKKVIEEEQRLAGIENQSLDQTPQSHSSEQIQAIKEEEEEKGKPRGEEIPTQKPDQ

Vasopressin V2 receptor = Vasopressin V2 receptor (Homo sapiens, UniProt P30518)
Vasopressin V2 receptor, sequence (P30518 whole entry): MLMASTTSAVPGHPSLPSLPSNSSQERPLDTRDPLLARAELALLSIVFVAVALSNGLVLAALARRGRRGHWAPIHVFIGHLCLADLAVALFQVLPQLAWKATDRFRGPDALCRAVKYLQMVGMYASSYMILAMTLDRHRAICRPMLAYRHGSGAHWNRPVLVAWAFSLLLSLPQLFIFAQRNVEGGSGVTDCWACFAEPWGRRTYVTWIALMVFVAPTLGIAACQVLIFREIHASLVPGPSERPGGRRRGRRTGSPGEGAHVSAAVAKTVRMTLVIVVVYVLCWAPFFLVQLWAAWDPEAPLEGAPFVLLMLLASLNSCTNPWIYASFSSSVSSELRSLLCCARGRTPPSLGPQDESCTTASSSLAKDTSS

[4] = biological target: T5, Muscarinic acetylcholine receptor M1 (Homo sapiens, UniProt P11229); type: functional
T5 sequence (P11229 whole entry): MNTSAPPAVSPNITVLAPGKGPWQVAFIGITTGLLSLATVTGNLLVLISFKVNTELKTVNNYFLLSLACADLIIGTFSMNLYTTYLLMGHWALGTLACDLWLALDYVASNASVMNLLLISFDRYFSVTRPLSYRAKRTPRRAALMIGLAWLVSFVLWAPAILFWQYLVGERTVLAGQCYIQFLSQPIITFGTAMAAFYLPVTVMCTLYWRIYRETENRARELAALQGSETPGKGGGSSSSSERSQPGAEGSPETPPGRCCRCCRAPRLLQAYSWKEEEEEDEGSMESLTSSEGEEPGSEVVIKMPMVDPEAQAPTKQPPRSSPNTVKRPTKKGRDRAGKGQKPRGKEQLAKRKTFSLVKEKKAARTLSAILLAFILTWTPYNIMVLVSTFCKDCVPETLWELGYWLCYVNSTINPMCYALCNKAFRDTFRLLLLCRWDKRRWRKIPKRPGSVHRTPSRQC

Measured: AC50
Note: assay procedure not described here.

Cn1c(=O)c2c(ncn2CC(O)CO)n(C)c1=O (stereo not drawn) [DYPHYLLINE]
> 30 µM: Adenosine receptor A3

CC1(C)O[C@@H]2C[C@H]3[C@@H]4C[C@H](F)C5=CC(=O)C=C[C@]5(C)[C@H]4[C@@H](O)C[C@]3(C)[C@]2(C(=O)CO)O1 [FLUNISOLIDE]
not listed: Vasopressin V2 receptor | [4]
> 30 µM: all other assays above

Nc1nc(O)c2ncn(COC(CO)CO)c2n1 [GANCICLOVIR]
not listed: [4]
> 30 µM: all other assays above

Cc1cnc(NC(=O)C2=C(O)c3ccccc3S(=O)(=O)N2C)s1 [MELOXICAM]
13.4 µM: Endothelin-1 receptor
> 30 µM: Vasopressin V2 receptor | Adenosine receptor A3
not listed: [4]
> 10 µM: all other assays above

CC(=O)/N=c1/sc(S(N)(=O)=O)nn1C [METHAZOLAMIDE]
> 30 µM: [2] | [3]
not listed: Endothelin-1 receptor
> 10 µM: all other assays above

CC[C@@H](CO)NC(=O)[C@@H]1C=C2c3cccc4[nH]cc(c34)C[C@H]2N(C)C1 [METHYLERGONOVINE]
not listed: [4]
> 30 µM: all other assays above

CNCCC=C1c2ccccc2CCc2ccccc21 [NORTRIPTYLINE]
> 30 µM: Vasopressin V2 receptor | Motilin receptor | Adenosine receptor A3 | Endothelin-1 receptor | [2]

COc1ccnc(C[S+]([O-])c2nc3ccc(OC(F)F)cc3[nH]2)c1OC (stereo not drawn) [PANTOPRAZOLE]
> 10 µM: Motilin receptor | [1]
> 30 µM: Vasopressin V2 receptor | Endothelin-1 receptor | [2] | [3]

COc1ccc(Cc2nccc3cc(OC)c(OC)cc23)cc1OC [PAPAVERINE]
not listed: [3] | [4]
> 30 µM: all other assays above

O=C1NC(=O)C(c2ccccc2)(c2ccccc2)N1 [PHENYTOIN]
not listed: [4]
> 30 µM: all other assays above

NC(=O)c1ncn([C@@H]2O[C@H](CO)[C@@H](O)[C@H]2O)n1 [RIBAVIRIN]
> 30 µM: [2] | [3]
> 10 µM: Vasopressin V2 receptor | Motilin receptor | Adenosine receptor A3 | [1]

CC[C@H]1OC(=O)[C@H](C)[C@@H](O[C@H]2C[C@@](C)(OC)[C@@H](O)[C@H](C)O2)[C@H](C)[C@@H](O[C@@H]2O[C@H](C)C[C@H](N(C)C)[C@H]2O)[C@](C)(O)C[C@@H](C)/C(=N\OCOCCOC)[C@H](C)[C@@H](O)[C@]1(C)O [ROXITHROMYCIN]
9 µM: Motilin receptor
not listed: Vasopressin V2 receptor | [4]
> 30 µM: all other assays above

CC(=O)S[C@@H]1CC2=CC(=O)CC[C@]2(C)[C@H]2CC[C@@]3(C)[C@@H](CC[C@@]34CCC(=O)O4)[C@H]12 [SPIRONOLACTONE]
not listed: [4]
> 30 µM: all other assays above
